According to patent US6340560B1, “Aminopolycarboxylic acid chelating agent, heavy metal chelate compound thereof, photographic additive and processing method” (Fuji Photo Film Co., Ltd., priority 1996, dated 2002):

Experiment: Example 12: biodegradability, 302 Revised Zahn-Wellens test (OECD Chemical Test Guideline)

biodegradable | biodegradability (in words) | SMILES
70% | – | CN(CCN(C)[C@@H](CC(=O)O)C(=O)O)[C@@H](CC(=O)O)C(=O)O [Compound 32]
70% | – | CN(CCN(C)[C@@H](CCC(=O)O)C(=O)O)[C@@H](CCC(=O)O)C(=O)O [Compound 45]
– | scarcely biodegradable | O=C(O)CN(CCN(CC(=O)O)CC(=O)O)CC(=O)O [Ethylenediaminetetraacetic acid, reference compound]
